Laboratory results reported in article PMC9109478 (2022).

Columns and labels:
[1] = tested on: hRAS1 (DNA, G4) TCGGGTTGCGGGCGCAGGGCACGGGCG; assay: CD melting; conditions: K+ 100 mM; 10 mM Tris, pH 7.4; G4 15 μM; TPE-B : G4 1:1
[2] = tested on: ODN-51 (DNA, G4) TAGGGTTAGGGTTAGGGTTAGGG; assay: ESI-MS; conditions: K+ 1 mM; 100 mM TMAA, 50% methanol; 20 μM strand
[3] = tested on: hRAS1 (DNA, G4) TCGGGTTGCGGGCGCAGGGCACGGGCG; assay: ESI-MS; conditions: K+ 1 mM; 100 mM TMAA, 50% methanol; 20 μM strand
[4] = tested on: NRAS (RNA, G4) UGUGGGAGGGGCGGGUCUGGG; assay: CD melting; conditions: K+ 100 mM; 10 mM Tris, pH 7.4; NRAS 5 μM; TPE-B : G4 1:1

CN(C)c1cc[n+](CCCCOc2ccc(C(=C(c3ccc(OCCCC[n+]4ccc(N(C)C)cc4)cc3)c3ccc(OCCCC[n+]4ccc(N(C)C)cc4)cc3)c3ccc(OCCCC[n+]4ccc(N(C)C)cc4)cc3)cc2)cc1
ΔTm [1]: 0.07 °C | binding [2]: weak | binding [3]: weak | ΔTm [4]: 13.51 °C
